Data from patent US9346815B2, “5-chloro-2-difluoromethoxyphenyl pyrazolopyrimidine compounds, compositions and methods of use thereof” (Genentech, Inc., priority 2014, dated 2016).
pKi: −log10 of the molar value.

What was measured:
[1] = target: isolated recombinant JAK1 kinase domain (Homo sapiens (Human), UniProt P23458); test: JAK1 enzyme assay (Caliper LabChip, peptide phosphorylation); assay type: biochemical; details: isolated recombinant JAK1 kinase domain, 25 μM ATP
[2] = target: isolated recombinant JAK2 kinase domain (Homo sapiens (Human), UniProt O60674); test: JAK2 enzyme assay (Caliper LabChip, peptide phosphorylation); assay type: biochemical; details: 25 μM ATP
[3] = system: JAK1-dependent STAT6 phosphorylation downstream of IL-13 stimulation in BEAS-2B human bronchial epithelial cells; test: JAK1 pathway assay in BEAS-2B cells (IL-13-pSTAT6, MSD); assay type: cell-based; details: read-out: IL13-pSTAT6 EC50 (uM)_BEAS-2B
Outline: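 TF-1 cells starved of GM-CSF overnight, assayed serum-free; BEAS-2B cells in complete growth medium. Lysate pSTAT6 measured by MSD; EC50 derived.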

Chain of isolated recombinant JAK1 kinase domain (P23458 875-1153): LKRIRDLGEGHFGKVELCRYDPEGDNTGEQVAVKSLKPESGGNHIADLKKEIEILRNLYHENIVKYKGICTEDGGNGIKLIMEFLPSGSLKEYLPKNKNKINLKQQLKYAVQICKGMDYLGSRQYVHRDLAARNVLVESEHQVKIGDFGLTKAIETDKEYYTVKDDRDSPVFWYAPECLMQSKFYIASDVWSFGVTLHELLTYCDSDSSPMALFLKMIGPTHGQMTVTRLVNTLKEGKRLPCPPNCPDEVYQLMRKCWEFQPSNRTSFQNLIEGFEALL
Chain of isolated recombinant JAK2 kinase domain (O60674 849-1124): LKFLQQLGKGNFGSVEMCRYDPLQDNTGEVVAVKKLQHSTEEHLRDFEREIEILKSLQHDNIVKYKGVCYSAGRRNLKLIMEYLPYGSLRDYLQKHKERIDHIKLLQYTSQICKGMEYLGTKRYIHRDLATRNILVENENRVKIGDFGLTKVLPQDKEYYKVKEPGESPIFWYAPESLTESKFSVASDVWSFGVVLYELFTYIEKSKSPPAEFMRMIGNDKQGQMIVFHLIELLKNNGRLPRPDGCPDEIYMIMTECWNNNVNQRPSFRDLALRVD

Row | SMILES | pKi [1] | pKi [2] | EC50 [3] [µM]
1 | CCOC(=O)CN1CCC(n2cc(NC(=O)c3cnn4cccnc34)c(-c3cc(Cl)ccc3OC(F)F)n2)CC1 [Example 366, ethyl 2-(4-[3-[5-chloro-2-(difluoromethoxy)phenyl]-4-[pyrazolo[1,5-a]pyrimidine-3-amido]-1H-pyrazol-1-yl]piperidin-1-yl)acetate] | 8.97 | 9.00 | 0.312
2 | CC1(N2CCOCC2)CCN(C(=O)Cn2cc(NC(=O)c3cnn4cccnc34)c(-c3cc(Cl)ccc3OC(F)F)n2)CC1 [Example 410, N-(3-(5-chloro-2-(difluoromethoxy)phenyl)-1-(2-(4-methyl-4-morpholinopiperidin-1-yl)-2-oxoethyl)-1H-pyrazol-4-yl)pyrazolo[1,5-a]pyrimidine-3-carboxamide] | 9.22 | 8.90 | 0.0183
3 | O=C(Nc1cn(CC(=O)N2CCC(OCC(=O)N3CCOCC3)CC2)nc1-c1cc(Cl)ccc1OC(F)F)c1cnn2cccnc12 [Example 453, N-(3-(5-chloro-2-(difluoromethoxy)phenyl)-1-(2-(4-(2-morpholino-2-oxoethoxy)piperidin-1-yl)-2-oxoethyl)-1H-pyrazol-4-yl)pyrazolo[1,5-a]pyrimidine-3-carboxamide] | 9.39 | 8.89 | 0.0304
4 | CSCCNCCn1cc(NC(=O)c2cnn3cccnc23)c(-c2cc(Cl)ccc2OC(F)F)n1 [Example 312, N-[3-[5-chloro-2-(difluoromethoxy)phenyl]-1-(2-[[2-(methylsulfanyl)ethyl]amino]ethyl)-1H-pyrazol-4-yl]pyrazolo[1,5-a]pyrimidine-3-carboxamide] | 9.40 | 9.49 | 0.0719
5 | CC1CN(C)CCN1C(=O)Cn1cc(NC(=O)c2cnn3cccnc23)c(-c2cc(Cl)ccc2OC(F)F)n1 (stereo not drawn) [Example 375, N-[3-[5-chloro-2-(difluoromethoxy)phenyl]-1-[2-(2,4-dimethylpiperazin-1-yl)-2-oxoethyl]-1H-pyrazol-4-yl]pyrazolo[1,5-a]pyrimidine-3-carboxamide] | 9.12 | 8.81 | 0.0716
6 | N#Cc1ccc(CN2CCN(C(=O)Cn3cc(NC(=O)c4cnn5cccnc45)c(-c4cc(Cl)ccc4OC(F)F)n3)CC2)cc1 [Example 238, N-[3-[5-chloro-2-(difluoromethoxy)phenyl]-1-[2-[4-[(4-cyanophenyl)methyl]piperazin-1-yl]-2-oxo-ethyl]pyrazol-4-yl]pyrazolo[1,5-a]pyrimidine-3-carboxamide] | 9.35 | 9.26 | 0.0218
7 | O=C(Nc1cn(CC(=O)N2CCC(N3CC4CC(C3)O4)CC2)nc1-c1cc(Cl)ccc1OC(F)F)c1cnn2cccnc12 [Example 450, N-(1-(2-(4-(6-oxa-3-aza-bicyclo[3.1.1]heptan-3-yl)piperidin-1-yl)-2-oxoethyl)-3-(5-chloro-2-(difluoromethoxy)phenyl)-1H-pyrazol-4-yl)pyrazolo[1,5-a]pyrimidine-3-carboxamide] | 9.43 | 9.01 | 0.0126
8 | CN1CCN(C(=O)Cn2cc(NC(=O)c3cnn4cccnc34)c(-c3cc(Cl)ccc3OC(F)F)n2)C(C)(C)C1 [Example 377, N-[3-[5-chloro-2-(difluoromethoxy)phenyl]-1-[2-oxo-2-(2,2,4-trimethylpiperazin-1-yl)ethyl]-1H-pyrazol-4-yl]pyrazolo[1,5-a]pyrimidine-3-carboxamide] | 9.25 | 8.89 | 0.0528
9 | CN(C)CC(=O)Cn1cc(NC(=O)c2cnn3cccnc23)c(-c2cc(Cl)ccc2OC(F)F)n1 [Example 411, N-(3-(5-chloro-2-(difluoromethoxy)phenyl)-1-(3-(dimethylamino)-2-oxopropyl)-1H-pyrazol-4-yl)pyrazolo[1,5-a]pyrimidine-3-carboxamide] | 8.77 | 9.37 | 0.0228
10 | CN(C)C(=O)CN1CCN(C(=O)Cn2cc(NC(=O)c3cnn4cccnc34)c(-c3cc(Cl)ccc3OC(F)F)n2)CC1 [Example 325, N-[3-[5-chloro-2-(difluoromethoxy)phenyl]-1-(2-[4-[(dimethylcarbamoyl)methyl]piperazin-1-yl]-2-oxoethyl)-1H-pyrazol-4-yl]pyrazolo[1,5-a]pyrimidine-3-carboxamide] | 9.39 | 8.99 | 0.0651
11 | CC(C#N)CNC1CCN(C(=O)Cn2cc(NC(=O)c3cnn4cccnc34)c(-c3cc(Cl)ccc3OC(F)F)n2)CC1 (stereo not drawn) [Example 419, N-(3-(5-chloro-2-(difluoromethoxy)phenyl)-1-(2-(4-(2-cyanopropyl-amino)piperidin-1-yl)-2-oxoethyl)-1H-pyrazol-4-yl)pyrazolo[1,5-a]pyrimidine-3-carboxamide] | 9.39 | 8.97 | 0.0313
12 | O=C1CC(N2CCN(C(=O)Cn3cc(NC(=O)c4cnn5cccnc45)c(-c4cc(Cl)ccc4OC(F)F)n3)CC2)CO1 (stereo not drawn) [Example 392, N-[3-[5-chloro-2-(difluoromethoxy)phenyl]-1-[2-oxo-2-[4-(5-oxooxolan-3-yl)piperazin-1-yl]ethyl]-1H-pyrazol-4-yl]pyrazolo[1,5-a]pyrimidine-3-carboxamide] | 9.40 | 9.11 | 0.0261
13 | CCOC(=O)CCN(C)C1CCN(C(=O)Cn2cc(NC(=O)c3cnn4cccnc34)c(-c3cc(Cl)ccc3OC(F)F)n2)CC1 [Example 391, ethyl 3-[[1-(2-[3-[5-chloro-2-(difluoromethoxy)phenyl]-4-[pyrazolo[1,5-a]pyrimidine-3-amido]-1H-pyrazol-1-yl]acetyl)piperidin-4-yl](methyl)amino]propanoate] | 9.04 | 8.60 | 0.0206
14 | CN1CCC(=CCn2cc(NC(=O)c3cnn4cccnc34)c(-c3cc(Cl)ccc3OC(F)F)n2)CC1 [Example 415, N-(3-(5-chloro-2-(difluoromethoxy)phenyl)-1-(2-(1-methylpiperidin-4-ylidene)ethyl)-1H-pyrazol-4-yl)pyrazolo[1,5-a]pyrimidine-3-carboxamide] | 8.52 | 8.68 | 0.046
15 | O=C(Nc1cn(CC(=O)N2CCC(N3CCOCC3)CC2)nc1-c1cc(Cl)ccc1OC(F)F)c1cnn2cccnc12 [Example 393, N-[3-[5-chloro-2-(difluoromethoxy)phenyl]-1-[2-[4-(morpholin-4-yl)piperidin-1-yl]-2-oxoethyl]-1H-pyrazol-4-yl]pyrazolo[1,5-a]pyrimidine-3-carboxamide] | 9.42 | 9.05 | 0.0115

Further lines, with some results ahead:

Row | pKi [1] | pKi [2] | SMILES | EC50 [3] [µM]
16 | 9.44 | 9.06 | CN1CCN(C2CCN(C(=O)Cn3cc(NC(=O)c4cnn5cccnc45)c(-c4cc(Cl)ccc4OC(F)F)n3)CC2)C(=O)C1 [Example 448, N-(3-(5-chloro-2-(difluoromethoxy)phenyl)-1-(2-(4-(4-methyl-2-oxopiperazin-1-yl)piperidin-1-yl)-2-oxoethyl)-1H-pyrazol-4-yl)pyrazolo[1,5-a]pyrimidine-3-carboxamide] | 0.0425
17 | 9.68 | 9.64 | O=C(Nc1cn(CCNCc2ccc(O)cc2)nc1-c1cc(Cl)ccc1OC(F)F)c1cnn2cccnc12 [Example 328, N-[3-[5-chloro-2-(difluoromethoxy)phenyl]-1-(2-[[(4-hydroxyphenyl)methyl]amino]ethyl)-1H-pyrazol-4-yl]pyrazolo[1,5-a]pyrimidine-3-carboxamide] | 0.0102
18 | 9.60 | 9.12 | N#CC1(NC2CCN(C(=O)Cn3cc(NC(=O)c4cnn5cccnc45)c(-c4cc(Cl)ccc4OC(F)F)n3)CC2)CC1 [Example 436, N-(3-(5-chloro-2-(difluoromethoxy)phenyl)-1-(2-(4-(1-cyanocyclo-propylamino)piperidin-1-yl)-2-oxoethyl)-1H-pyrazol-4-yl)pyrazolo[1,5-a]pyrimidine-3-carboxamide] | 0.0103
19 | 9.44 | 9.15 | O=C1CN(C2CCN(C(=O)Cn3cc(NC(=O)c4cnn5cccnc45)c(-c4cc(Cl)ccc4OC(F)F)n3)CC2)CCN1 [Example 407, N-(3-(5-chloro-2-(difluoromethoxy)phenyl)-1-(2-oxo-2-(4-(3-oxopiperazin-1-yl)piperidin-1-yl)ethyl)-1H-pyrazol-4-yl)pyrazolo[1,5-a]pyrimidine-3-carboxamide] | 0.172
20 | 9.51 | 9.22 | O=C(Nc1cn(CC(=O)N2CCN(Cc3ccccc3)CC2)nc1-c1cc(Cl)ccc1OC(F)F)c1cnn2cccnc12 [Example 320, N-[1-[2-(4-benzylpiperazin-1-yl)-2-oxoethyl]-3-[5-chloro-2-(difluoromethoxy)phenyl]-1H-pyrazol-4-yl]pyrazolo[1,5-a]pyrimidine-3-carboxamide] | 0.0473
21 | 9.62 | 9.25 | CN(CC(C)(C)C#N)C1CCN(C(=O)Cn2cc(NC(=O)c3cnn4cccnc34)c(-c3cc(Cl)ccc3OC(F)F)n2)CC1 [Example 465, N-(3-(5-chloro-2-(difluoromethoxy)phenyl)-1-(2-(4-((2-cyano-2-methylpropyl)(methyl)amino)piperidin-1-yl)-2-oxoethyl)-1H-pyrazol-4-yl)pyrazolo[1,5-a]pyrimidine-3-carboxamide] | 0.0114
22 | 9.68 | 9.55 | O=C(Nc1cn(CCNCc2ccccc2O)nc1-c1cc(Cl)ccc1OC(F)F)c1cnn2cccnc12 [Example 326, N-[3-[5-chloro-2-(difluoromethoxy)phenyl]-1-(2-[[(2-hydroxyphenyl)methyl]amino]ethyl)-1H-pyrazol-4-yl]pyrazolo[1,5-a]pyrimidine-3-carboxamide] | 0.007
